Assay results reported in patent publication US20120149657A1, “2'-FLUORO ARABINO NUCLEOSIDES AND USE THEREOF” (Southern Research Institute, priority 2009, published 2012).
Marks after values point to notes of the source that are not given here.

Columns and labels:
[1] = system: CCRF-CEM leukemia; experiment: In vitro cytotoxicity (MTS, 72 h), CCRF-CEM; type: cell-based, human; details: for IC50: Homo sapiens, CCRF-CEM, 72 hours of incubation
Method: (§1) The concentration of compound required to inhibit cell growth by 50% (IC50) after 72 hours of incubation was determined for each unprotected analog with eight human tumor cell lines (SNB-7 CNS, DLD-1 colon, CCRF-CEM leukemia, NCI-H23 NSCL, ZR-75-1 breast, LOX melanoma, PC-3 prostate, and CAKI-1 renal). […] The α-anomers of these compounds were also screened but were not found to be cytotoxic (data not shown).
(§2) CCRF-CEM cells are a T-cell leukemia cell line that is known to be very sensitive to nucleoside analogs.
(§3) All cell lines were grown in RPMI 1640 medium containing 10% fetal bovine serum, sodium bicarbonate, and 2 mM L-glutamine. For in vitro evaluation of the sensitivity of these cell lines to compounds, cells were plated in 96-well microtiter plates and then were exposed continuously to various concentrations of the compounds for 72 h at 37° C. Cell viability was measured using the MTS assay [3-(4,5-dimethylthiazol-2-yl)-5-(3-carboxymethoxyphenyl)-2-(4-sulfophenyl)-2H-tetrazolium, inner salt; MTS and an electron coupling reagent (phenazine ethosulfate; PES)]. Absorbance was read at 490 nm. The background absorbance mean was subtracted from the data followed by conversion to percent of control. The drug concentrations producing survival just above and below 50% level were used in a linear regression analysis to calculate the IC50.

[2] = system: cells that lacked dCyd kinase; experiment: Cytotoxicity in cells that lacked dCyd kinase; type: cell-based
Excerpt: as §2

[3] = system: CCRF-CEM cells; experiment: Intracellular triphosphate in CCRF-CEM cells; type: cell-based, human
Method: CCRF-CEM cells were incubated with methyl-F-araC, araC, and gemcitabine, and the amount of intracellular triphosphate (TP) of each compound was determined.
CCRF-CEM cell extracts were collected by centrifugation and resuspended in ice-cold 0.5 M perchloric acid. The samples were centrifuged at 12,000×g, and the supernatant fluid was neutralized and buffered by adding 4 M KOH and 1 M potassium phosphate, pH 7.4. KClO4 was removed by centrifugation, and a portion of the supernatant fluid was injected onto a strong anion exchange HPLC (Bio Basic anion exchange column, Thermo Electron Corp., Bellefonte, Pa.). Nucleotides were eluted with a 30-min linear salt and pH gradient from 6 mM ammonium phosphate (pH 2.8) to 900 mM ammonium phosphate (pH 6). Peaks were detected as they eluted from the column by their absorbance at 254 nm.

[4] = system: PC-3 prostate; experiment: In vitro cytotoxicity (MTS, 72 h), PC-3; type: cell-based; details: Homo sapiens; PC-3, 72 hours of incubation
Method: as §1, §3

[5] = system: LOX melanoma; experiment: In vitro cytotoxicity (MTS, 72 h), LOX; type: cell-based; details: Homo sapiens, 72 hours of incubation
Method: as §1, §3

[6] = system: eight human tumor cell lines; experiment: In vitro cytotoxicity, panel of eight human tumor cell lines; type: cell-based
Method: as §1, §3

[7] = system: NCI-H23 NSCL; experiment: NCI-H23 NSCL tumor xenograft, sc, in nude mice; type: in vivo, female NCr-nu athymic mice
Method: (§4) Because of its potent in vitro activity, methyl-F-araC (13) was evaluated for in vivo activity against three solid tumor xenografts (CAKI-1 renal, NCI-H23 NSCL, and LOX melanoma). Prior to these studies the maximally tolerated dose of methyl-F-araC was determined to be 3 mg/kg given once per day for 9 consecutive days. […] Female NCr-nu athymic mice were implanted subcutaneously with CAKI-1 tumor fragments. When tumors were approximately 100-250 mg, mice were treated ip with methyl-F-araC at 1, 2, or 3 mg/kg/dose (1 treatment each day for 9 consecutive days starting on day 14). Each treatment group contained 6 mice. The tumors were measured with calipers twice each week, and the weight (mg) was calculated. In this experiment there were 3 of 6 tumor-free survivors at the end of the experiment (62 days post implant) in each treatment group. Good results were also seen against NCI-H23 and LOX human tumor xenografts (Table 2).
(§5) Xenografts were implanted sc on the flanks of female nude mice. When tumors were approximately 100-250 mg, they were treated ip with 3 or 4 mg/kg/dose of methyl-F-araC (q1d×9) and tumor size was measured twice weekly thereafter. Tumor-free survivors are the number of mice that were tumor-free at the end of the experiment/total number of mice in the treatment group. ^aThe difference in the median of times poststaging for tumors of the treated (T) and control (C) groups to double in mass three times. ^bThe difference in the median of times poststaging for tumors of the treated (T) and control (C) groups to double in mass two times. ^cThe difference in the median of times poststaging for tumors of the treated (T) and control (C) groups to double in mass four times.
(§6) Mice, obtained from various commercial suppliers, were housed in microisolator cages and were allowed commercial mouse food and water ad libitum. […]
(§7) Antitumor activity was assessed on the basis of delay in tumor growth (T-C). […] Tumors were measured in two dimensions (length and width) twice weekly, and the tumor weight was calculated using the formula (length×width^2)/2 and assuming unit density. […]

[8] = system: NCI-H23 NSCL; experiment: In vitro cytotoxicity (MTS, 72 h), NCI-H23; type: cell-based; details: Homo sapiens; NCI-H23, 72 hours of incubation
Method: as §1, §3

[9] = system: SNB-7 CNS; experiment: In vitro cytotoxicity (MTS, 72 h), SNB-7; type: cell-based; details: Homo sapiens; SNB-7, 72 hours of incubation
Method: as §1, §3

[10] = Maximally tolerated dose; type: in vivo, mice; details: once per day for 9 consecutive days
Method: as §4

[11] = system: LOX melanoma; experiment: LOX melanoma tumor xenograft, sc, in nude mice; type: in vivo, female NCr-nu athymic mice
Method: as §4, §5, §6, §7

[12] = system: CAKI-1 renal; experiment: In vitro cytotoxicity (MTS, 72 h), CAKI-1; type: cell-based; details: Homo sapiens; CAKI-1, 72 hours of incubation
Method: as §1, §3

[13] = system: DLD-1 colon; experiment: In vitro cytotoxicity (MTS, 72 h), DLD-1; type: cell-based; details: Homo sapiens; DLD-1, 72 hours of incubation
Method: as §1, §3

[14] = system: ZR-75-1 breast; experiment: In vitro cytotoxicity (MTS, 72 h), ZR-75-1; type: cell-based; details: Homo sapiens; ZR-75-1, 72 hours of incubation
Method: as §1, §3

[15] = system: CAKI-1 renal; experiment: CAKI-1 renal tumor xenograft, sc, in nude mice; type: in vivo, female NCr-nu athymic mice
Method: as §4, §5
Mice, obtained from various commercial suppliers, were housed in microisolator cages and were allowed commercial mouse food and water ad libitum. The three human tumors were obtained from the Developmental Therapeutics Program Tumor Repository (Frederick, Md.) and were maintained in in vivo passage. Only tumor lines that tested negative for selected viruses were used. For the in vivo evaluation of the sensitivity of human tumors to the compounds, female NCr-nu athymic mice were implanted subcutaneously (sc) with 30-40 mg tumor fragments. In each experiment, methyl-F-araC (13) was tested at three dosage levels. […]
as §7

[16] = 3 mg/kg/dose ip q1d×9, tumor-free/total at end of experiment

Compound: C[C@]1(CO)O[C@@H](n2cnc3c(N)nc(N)nc32)[C@@H](F)[C@@H]1O [Compound 21, 2,6-Diamino-9-(2-deoxy-2-fluoro-4-C-methyl-β-D-arabinofuranosyl)purine]
- melting point: 270 °C (dec.)
- IC50 [1]: ~500 nM
- cytotoxicity with addition of deoxycoformycin ([1]; deoxycoformycin (adenosine deaminase inhibitor) added): prevented

Compound: C[C@]1(CO)O[C@@H](n2cnc3c(=O)[nH]c(N)nc32)[C@@H](F)[C@@H]1O [Compound 22, 9-(2-Deoxy-2-fluoro-4-C-methyl-β-D-arabinofuranosyl)guanine]
- IC50 [1]: ~500 nM

Compound: C[C@]1(CO)O[C@@H](n2cnc3c(N)nc(Cl)nc32)[C@@H](F)[C@@H]1O [Compound 24, 2-Chloro-9-(2-deoxy-2-fluoro-4-C-methyl-β-D-arabinofuranosyl)adenine]
- activity in cells that lacked dCyd kinase [2]: neither compound was active
- IC50 [1]: ~500 nM
- inhibition of CCRF-CEM cell growth with dCyd added to the culture medium [1]: prevented

Compound: Nc1ccn([C@@H]2O[C@H](CO)[C@@H](O)[C@@H]2O)c(=O)n1 [araC]
- intracellular concentration of triphosphate ([3]; 100 nM of compound, two hours, mean±SD, N=3): 12±1 pmoles/10^6 cells
- intracellular half-life of triphosphate ([3]; CCRF-CEM cells, N=2): 5.6 h

Compound: Nc1ccn([C@@H]2O[C@H](CO)[C@@H](O)C2(F)F)c(=O)n1 [gemcitabine]
- intracellular concentration of triphosphate ([3]; human, 2 h, 100 nM): 17±3 pmoles/10^6 cells

Compound: C[C@]1(CO)O[C@@H](n2ccc(N)nc2=O)[C@@H](F)[C@@H]1O [methyl-F-araC, 1-(2-Deoxy-2-fluoro-4-C-methyl-β-D-arabinofuranosyl)cytosine]
- IC50 [4]: > 200000 nM
- IC50 [5]: 240 ± 150 nM
- cytotoxicity (in words) [6]: significant cytotoxicity against four of the cell lines
- T-C (days) ([7]; 4 mg/kg/dose ip q1d×9, time to double in mass two times): 18.4^b days
- Tumor-free survivors ([7]; 4 mg/kg/dose ip q1d×9, tumor-free/total at end of experiment): 0/5
- in vivo activity (in words) ([7]; NCI-H23 xenograft): Good results
- IC50 [8]: 190 ± 10 nM
- IC50 [9]: > 200000 nM
- maximally tolerated dose [10]: 3 mg/kg
- T-C (days) ([11]; 3 mg/kg/dose ip q1d×9, time to double in mass four times): 15.0^c days
- Tumor-free survivors [11, 16]: 0/6
- in vivo activity (in words) ([11]; LOX xenograft): Good results
- activity in cells that lacked dCyd kinase [2]: neither compound was active
- intracellular concentration of triphosphate ([3]; human, 2 h, 100 nM): 16±2 pmoles/10^6 cells
- IC50 [1]: 12 ± 3 nM
- inhibition of CCRF-CEM cell growth with dCyd added to the culture medium [1]: prevented
- IC50 [12]: 540 ± 580 nM
- IC50 [13]: > 200000 nM
- IC50 [14]: > 200000 nM
- T-C (days) ([15]; 3 mg/kg/dose ip q1d×9, time to double in mass three times): >34.6^a days
- Tumor-free survivors [15, 16]: 3/6
- tumor-free survivors in each treatment group ([15]; 1, 2, or 3 mg/kg/dose ip, 9 days from day 14, 62 days post implant): 3 of 6
- in vivo activity (in words) ([15]; CAKI-1 tumors, FIG. 1): excellent activity
